{"source": "patent US20260224597A1", "about": "“METHODS FOR ACTIVATING IMMUNE CELLS TO KILL BACTERIA” (The Texas A&M University System, priority 2023, published 2026)", "key": {"[1]": {"test_system": "Mtb", "experiment": "Transmission electron microscopy of Mtb cell envelope thickness", "type": "cell-based, Mycobacterium tuberculosis", "conditions": "TEM, 1 μg/ml INH and/or 5 μM gallein for 14 days"}, "[2]": {"test_system": "Mtb", "experiment": "microbe, parasite or virus in culture", "type": "cell-based, Mycobacterium tuberculosis"}, "[3]": {"molecular_target": "IP6K1 (Homo sapiens, UniProt Q92551)", "sequence (Q92551 whole entry)": "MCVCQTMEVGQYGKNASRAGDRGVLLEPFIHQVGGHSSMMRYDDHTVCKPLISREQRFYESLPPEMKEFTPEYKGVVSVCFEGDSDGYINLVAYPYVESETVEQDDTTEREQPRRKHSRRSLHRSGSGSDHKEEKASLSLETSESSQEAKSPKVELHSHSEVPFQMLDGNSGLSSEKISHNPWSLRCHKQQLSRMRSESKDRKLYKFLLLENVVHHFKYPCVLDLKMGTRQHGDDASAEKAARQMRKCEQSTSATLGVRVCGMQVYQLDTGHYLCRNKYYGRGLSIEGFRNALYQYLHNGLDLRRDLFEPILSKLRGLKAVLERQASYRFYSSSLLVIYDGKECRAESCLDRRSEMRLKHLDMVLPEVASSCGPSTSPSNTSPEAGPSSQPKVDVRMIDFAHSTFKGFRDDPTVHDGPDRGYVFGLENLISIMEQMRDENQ", "conditions": "Liao 2021; read-out: IC50 as to IP6K1; cited from earlier work"}, "[4]": {"test_system": "Mtb"}, "[5]": {"test_system": "Mtb", "experiment": "microbe, parasite or virus in culture", "conditions": "Mycobacterium tuberculosis, Macrophage, in Homo sapiens, 48 h, read-out: reduction of the viability of Mtb"}, "[6]": {"test_system": "L. monocytogenes", "type": "cell-based, Listeria monocytogenes"}, "[7]": {"test_system": "human macrophages"}, "[8]": {"test_system": "L. pneumophila", "type": "cell-based, Legionella pneumophila"}, "[9]": {"test_system": "PPK2", "conditions": "in Pseudomonas aeruginosa, Neville et al., 2021; cited from earlier work"}, "[10]": {"molecular_target": "PPK1 (Pseudomonas aeruginosa, UniProt P0DP44)", "sequence (P0DP44 whole entry)": "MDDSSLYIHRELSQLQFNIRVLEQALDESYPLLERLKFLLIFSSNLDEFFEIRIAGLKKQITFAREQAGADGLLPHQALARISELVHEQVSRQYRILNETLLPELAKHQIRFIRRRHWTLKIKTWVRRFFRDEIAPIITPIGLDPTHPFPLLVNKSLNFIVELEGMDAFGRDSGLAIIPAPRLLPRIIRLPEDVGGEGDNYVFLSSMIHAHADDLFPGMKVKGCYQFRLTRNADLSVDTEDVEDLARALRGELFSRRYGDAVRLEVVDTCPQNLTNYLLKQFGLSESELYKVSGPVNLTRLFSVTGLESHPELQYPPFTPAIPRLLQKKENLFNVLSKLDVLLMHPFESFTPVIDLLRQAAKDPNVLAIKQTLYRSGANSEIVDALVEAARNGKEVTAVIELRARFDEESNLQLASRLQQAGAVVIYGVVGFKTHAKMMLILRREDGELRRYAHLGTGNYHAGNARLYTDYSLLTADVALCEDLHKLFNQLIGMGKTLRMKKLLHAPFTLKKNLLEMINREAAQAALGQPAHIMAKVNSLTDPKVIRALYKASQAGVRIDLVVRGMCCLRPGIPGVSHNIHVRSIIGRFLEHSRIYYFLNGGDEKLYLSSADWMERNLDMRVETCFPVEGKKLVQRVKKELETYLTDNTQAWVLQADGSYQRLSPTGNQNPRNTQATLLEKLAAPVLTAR", "conditions": "in Pseudomonas aeruginosa, Neville et al., 2021; cited from earlier work"}, "[11]": {"test_system": "P. aeruginosa", "conditions": "in Caenorhabditis elegans, Neville et al., 2021; cited from earlier work"}}, "note": "Like-named read-outs stand apart in the source and are kept apart here."}
{"smiles": "NNC(=O)c1ccncc1", "note": "[INH, Isonicotinic acid hydrazide]", "values": [{"measurement": "Mtb cell envelope thickness", "setting": "[1]", "result": "increased"}, {"measurement": "Mtb growth", "setting": "[2]", "result": "partial but not complete reduction"}]}
{"smiles": "Cn1sc(=O)n(Cc2ccccc2)c1=O", "note": "[LI-1753]", "values": [{"measurement": "IC50", "setting": "[3]", "result": 2150, "unit": "nM"}]}
{"smiles": "O=[N+]([O-])c1ccc(CNc2nc(NCc3cccc(C(F)(F)F)c3)nc3[nH]cnc23)cc1", "note": "[TNP, N6-[(4-nitrophenyl)methyl]-N2-[[3-(trifluoromethyl)phenyl]methyl]-9H-Purine-2,6-diamine]", "values": [{"measurement": "number of ingested Mtb compared to control", "setting": "[4]", "result": "increased"}, {"measurement": "number of viable Mtb compared to control", "setting": "[4]", "result": "reduced the number of viable Mtb"}, {"measurement": "inhibition at 1 µM", "setting": "[5]", "result": "~50", "unit": "%"}, {"measurement": "viability of ingested L. monocytogenes compared to control", "setting": "[6]", "result": "reduced the viability"}, {"measurement": "metabolic activity of macrophages", "setting": "[7]", "result": "reduced the metabolic activity"}, {"measurement": "metabolic activity of macrophages infected with Mtb", "setting": "[7]", "result": "did not significantly change"}, {"measurement": "viability of ingested L. pneumophila compared to control", "setting": "[8]", "result": "reduced the viability"}]}
{"smiles": "O=C1OC2(c3ccccc31)c1ccc(O)c(O)c1Oc1c2ccc(O)c1O", "note": "[gallein, 3′,4′,5′,6′-Tetrahydroxyspiro[isobenzofuran-1(3H),9′-(9H)xanthen]-3-one]", "values": [{"measurement": "ingested Mtb viability compared to control", "setting": "[4]", "result": "decreased ingested Mtb viability"}, {"measurement": "number of ingested Mtb compared to control", "setting": "[4]", "result": "increased"}, {"measurement": "number of viable Mtb compared to control", "setting": "[4]", "result": "reduced the number of viable Mtb"}, {"measurement": "viability of ingested Mtb compared to control", "setting": "[4]", "result": "reduced the viability"}, {"measurement": "PPK2 enzyme activity", "setting": "[9]", "result": "inhibits"}, {"measurement": "viability of ingested L. monocytogenes compared to control", "setting": "[6]", "result": "reduced the viability"}, {"measurement": "metabolic activity of macrophages infected with Mtb", "setting": "[7]", "result": "did not significantly change"}, {"measurement": "metabolic activity of macrophages", "setting": "[7]; human", "result": "None of the concentrations of MRS2279 and gallein significantly altered"}, {"measurement": "viability of ingested L. pneumophila compared to control", "setting": "[8]", "result": "reduced the viability"}, {"measurement": "Mtb cell envelope thickness", "setting": "[1]", "result": "did not significantly affect"}, {"measurement": "PPK1 enzyme activity", "setting": "[10]", "result": "inhibits"}, {"measurement": "Mtb growth compared to control", "setting": "[2]", "result": "slightly slowed growth"}, {"measurement": "inhibition at 50 µM", "setting": "[2]; Mycobacterium tuberculosis, 336 h, read-out: inhibition of Mtb growth", "result": "~80", "unit": "%"}, {"measurement": "virulence of P. aeruginosa", "setting": "[11]", "result": "attenuates the virulence"}]}
